This passage reports IC50 results from patent US20260070945A1, “MACROCYCLIC IMMUNOMODULATORS” (Bristol-Myers Squibb Company, priority 2022, published 2026).

*1 amine or outer side, *2 acyl side, *3 side chain or, on linkers, in order; H or OH if unused. Where a SMILES comes first, the peptide text is derived from it. Bridges are numbered along the chain shown (N, C = ends). [ ]: non-standard residue; d: D form. The star is where a group is joined. ξ: configuration not given here. Phe(3-CF3) = N[C@@H](Cc1cccc(C(F)(F)F)c1)C(=O)O; Phe(4-COOH) = N[C@@H](Cc1ccc(C(=O)O)cc1)C(=O)O; Bip = N[C@@H](Cc1ccc(-c2ccccc2)cc1)C(=O)O; Phe(3-Cl) = N[C@@H](Cc1cccc(Cl)c1)C(=O)O; Phe(3-Me) = Cc1cccc(C[C@H](N)C(=O)O)c1; γGlu = O=C(O)[C@H](CCC(=O)[*:2])N[*:1]; NH(CH2)12COOH = O=C(O)CCCCCCCCCCCCN*; Val(3-OH) = CC(C)(O)[C@H](N)C(=O)O; 4Pal = N[C@@H](Cc1ccncc1)C(=O)O; Cha = N[C@@H](CC1CCCCC1)C(=O)O; Ile(3ξ) = CCC(C)[C@H](N)C(=O)O; Thr(3ξ) = CC(O)[C@H](N)C(=O)O; Carboxymethyl = O=C(O)C*; NMeA = CN[C@@H](C)C(=O)O; Orn = NCCC[C@H](N)C(=O)O; Aun = NCCCCCCCCCCC(=O)O; Dab = NCC[C@H](N)C(=O)O; AEEA = NCCOCCOCC(=O)O

T1 sequence (Q15116 25-288): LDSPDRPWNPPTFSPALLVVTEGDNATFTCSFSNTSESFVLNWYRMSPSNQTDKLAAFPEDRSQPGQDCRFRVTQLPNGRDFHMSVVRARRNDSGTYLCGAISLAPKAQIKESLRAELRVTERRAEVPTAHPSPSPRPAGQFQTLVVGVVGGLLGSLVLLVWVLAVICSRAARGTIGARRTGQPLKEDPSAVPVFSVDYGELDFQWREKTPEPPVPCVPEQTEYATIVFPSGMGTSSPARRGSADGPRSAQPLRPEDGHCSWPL

The first assay concerns the target T1, PD-1/PD-L1 interaction (PE-labeled human PD-L1-Ig binding to Jurkat cell line over-expressing human PD-1) (Homo sapiens, UniProt Q15116).
T1 construct: expressed in transfected cells; host or cells: Jurkat
As to the kind of experiment: Jurkat-PD-1 Cell Binding High-Content Screening Assay (CBA). The settings on record: Jurkat-hPD-1 cells, PE-labeled PD-L1-Ig 20 nM final; read-out: Jurkat HPD1 PDL1 IC50. Put shortly:
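Read-out: high-content imaging of cell-bound PE fluorescence, with Hoechst 33342 nuclear counterstain after paraformaldehyde fixation. Before labeled ligand (20 nM final, 1 h) was added, compound sat on the cells for 2 h at 37 °C in DMEM/10% FCS.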
As to `Cc1cccc(C[C@@H]2NC(=O)[C@H](CC(=O)O)NC(=O)[C@H](Cc3ccc(OCC(=O)O)cc3)NC(=O)[C@H](C(C)O)NC(=O)CSC[C@@H](C(=O)N[C@@H](CCN)C(=O)NCCCCCCCCCCC(=O)O)NC(=O)[C@H](C(C)O)NC(=O)[C@H](C(C)C)NC(=O)[C@H](CC3CCCCC3)NC(=O)[C@H](CCN)NC(=O)[C@@H](CC(C)C)NC(=O)[C@H](C)N(C)C(=O)[C@H](Cc3ccc(OCC(=O)O)cc3)NC(=O)[C@H](Cc3ccc(-c4ccccc4)cc3)NC(=O)[C@H](C(C)C)NC2=O)c1` (stereo partly drawn) [Example 2309] ({CH2CO}-[Thr(3ξ)]Y(Carboxymethyl)D[Phe(3-Me)]V[Bip]Y(Carboxymethyl)[NMeA][dL][Dab][Cha]V[Thr(3ξ)]C[Dab][Aun]-OH; thioether N-14), the IC50 amounted to 0.0279 µM.
Still for that read-out and setting: with `CC(C)C[C@H]1NC(=O)[C@H](C)N(C)C(=O)[C@H](CCC(N)=O)NC(=O)[C@H](Cc2ccc(-c3ccccc3)cc2)NC(=O)[C@H](Cc2ccc(C(=O)O)cc2)NC(=O)[C@H](Cc2cccc(C(F)(F)F)c2)NC(=O)[C@H](CC(=O)O)NC(=O)[C@H](Cc2ccc(OCC(=O)O)cc2)NC(=O)[C@H](Cc2ccc(C(=O)O)cc2)NC(=O)CSC[C@@H](C(=O)N[C@@H](CCN)C(=O)NCCOCCOCC(=O)N[C@@H](CCC(=O)NCCOCCOCC(=O)NCCCCCCCCCCCCC(=O)O)C(=O)O)NC(=O)[C@H](CC(=O)O)NC(=O)[C@H](C(C)(C)O)NC(=O)[C@H](CC2CCCCC2)NC(=O)[C@H](CCN)NC1=O` [Example 1182] ({CH2CO}-[Phe(4-COOH)]Y(Carboxymethyl)D[Phe(3-CF3)][Phe(4-COOH)][Bip]Q[NMeA][dL][Dab][Cha][Val(3-OH)]DC[Dab][AEEA][γGlu][AEEA]-{NH(CH2)12COOH}; thioether N-14) the figure was 0.093 µM; with `Cc1cccc(C[C@@H]2NC(=O)[C@H](CC(=O)O)NC(=O)[C@H](Cc3ccc(OCC(=O)O)cc3)NC(=O)[C@H]([C@@H](C)O)NC(=O)CSC[C@@H](C(=O)N[C@@H](CCCN)C(=O)NCCOCCOCC(=O)NCCCCCCCCCCC(=O)O)NC(=O)[C@H](CCC(=O)O)NC(=O)[C@H](C(C)C)NC(=O)[C@H](CC3CCCCC3)NC(=O)[C@H](CC(N)=O)NC(=O)[C@@H](CC(C)C)NC(=O)[C@H](C)N(C)C(=O)[C@H](Cc3ccc(OCC(=O)O)cc3)NC(=O)[C@H](Cc3ccc(-c4ccccc4)cc3)NC(=O)[C@H](Cc3ccc(OCC(=O)O)cc3)NC2=O)c1` [Example 1366] ({CH2CO}-TY(Carboxymethyl)D[Phe(3-Me)]Y(Carboxymethyl)[Bip]Y(Carboxymethyl)[NMeA][dL]N[Cha]VEC[Orn][AEEA][Aun]-OH; thioether N-14), 0.128 µM; with `CC(C)C[C@H]1NC(=O)[C@H](C)N(C)C(=O)[C@H](Cc2ccc(OCC(=O)O)cc2)NC(=O)[C@H](Cc2ccc(-c3ccccc3)cc2)NC(=O)[C@H](Cc2ccc(C(=O)O)cc2)NC(=O)[C@H](Cc2cccc(Cl)c2)NC(=O)[C@H](CC(=O)O)NC(=O)[C@H](Cc2ccc(OCC(=O)O)cc2)NC(=O)[C@H]([C@@H](C)O)NC(=O)CSC[C@@H](C(=O)N[C@@H](CCN)C(=O)NCCCCCCCCCCC(=O)O)NC(=O)[C@H]([C@@H](C)O)NC(=O)[C@H](C(C)C)NC(=O)[C@H](CC2CCCCC2)NC(=O)[C@H](CCN)NC1=O` [Example 1232] ({CH2CO}-TY(Carboxymethyl)D[Phe(3-Cl)][Phe(4-COOH)][Bip]Y(Carboxymethyl)[NMeA][dL][Dab][Cha]VTC[Dab][Aun]-OH; thioether N-14), 0.0341 µM.
The same measure, in the same setting: in the case of `COC[C@@H]1NC(=O)CSC[C@@H](C(=O)N[C@@H](CCN)C(=O)NCCCCCCCCCCCCC(=O)O)NC(=O)[C@H](CC(=O)O)NC(=O)[C@H](C(C)(C)O)NC(=O)[C@H](CC2CCCCC2)NC(=O)[C@H](CCN)NC(=O)[C@@H](CC(C)C)NC(=O)[C@H](C)N(C)C(=O)[C@H](CCC(N)=O)NC(=O)[C@H](Cc2ccc(-c3ccccc3)cc2)NC(=O)[C@H](Cc2ccc(C(=O)O)cc2)NC(=O)[C@H](Cc2cccc(C(F)(F)F)c2)NC(=O)[C@H](CC(=O)O)NC(=O)[C@H](Cc2ccc(OCC(=O)O)cc2)NC1=O` [Example 1134] ({CH2CO}-S(Me)Y(Carboxymethyl)D[Phe(3-CF3)][Phe(4-COOH)][Bip]Q[NMeA][dL][Dab][Cha][Val(3-OH)]DC[Dab]-{NH(CH2)12COOH}; thioether N-14) it was 0.0153 µM.

The assay is the same for the next values; noted with them: PE-labeled PD-L1-Ig 20 nM final, Jurkat-hPD-1 cells; read-out: Jurkat HPD1 PDL1 IC50.
`Cc1cccc(C[C@@H]2NC(=O)[C@H](CC(=O)O)NC(=O)[C@H](Cc3ccc(OCC(=O)O)cc3)NC(=O)[C@H](C(C)O)NC(=O)CSC[C@@H](C(=O)N[C@@H](CCN)C(=O)NCCOCCOCC(=O)NCCCCCCCCCCC(=O)O)NC(=O)[C@H](CC(=O)O)NC(=O)[C@H](C(C)C)NC(=O)[C@H](CC3CCCCC3)NC(=O)[C@H](CCN)NC(=O)[C@@H](CC(C)C)NC(=O)[C@H](C)N(C)C(=O)[C@H](Cc3ccc(OCC(=O)O)cc3)NC(=O)[C@H](Cc3ccc(-c4ccccc4)cc3)NC(=O)[C@H](Cc3ccc(OCC(=O)O)cc3)NC2=O)c1` (stereo partly drawn) [Example 2558] ({CH2CO}-[Thr(3ξ)]Y(Carboxymethyl)D[Phe(3-Me)]Y(Carboxymethyl)[Bip]Y(Carboxymethyl)[NMeA][dL][Dab][Cha]VDC[Dab][AEEA][Aun]-OH; thioether N-14): the IC50 was found to be 0.0116 µM.
On the same count and under the same terms, with `Cc1cccc(C[C@@H]2NC(=O)[C@H](CC(=O)O)NC(=O)[C@H](Cc3ccc(C(=O)O)cc3)NC(=O)[C@H](Cc3ccncc3)NC(=O)CSC[C@@H](C(=O)NCCOCCOCC(=O)NCCCCCCCCCCC(=O)O)NC(=O)[C@H](Cc3cnc[nH]3)NC(=O)[C@H](C(C)(C)O)NC(=O)[C@H](CC3CCCCC3)NC(=O)[C@H](CCN)NC(=O)[C@@H](CC(C)C)NC(=O)[C@H](C)N(C)C(=O)[C@H](Cc3ccc(OCC(=O)O)cc3)NC(=O)[C@H](Cc3ccc(-c4ccccc4)cc3)NC(=O)[C@H](Cc3ccc(OCC(=O)O)cc3)NC2=O)c1` [Example 2464] ({CH2CO}-[4Pal][Phe(4-COOH)]D[Phe(3-Me)]Y(Carboxymethyl)[Bip]Y(Carboxymethyl)[NMeA][dL][Dab][Cha][Val(3-OH)]HC[AEEA][Aun]-OH; thioether N-14) the figure was 0.046 µM; with `CCC(C)[C@@H]1NC(=O)[C@H](Cc2ccc(-c3ccccc3)cc2)NC(=O)[C@H](C(C)C)NC(=O)[C@H](Cc2c[nH]c3ccccc23)NC(=O)[C@H](CC(=O)O)NC(=O)[C@H](Cc2ccc(C(=O)O)cc2)NC(=O)[C@H](Cc2ccc(OCC(=O)O)cc2)NC(=O)CSC[C@@H](C(=O)N[C@@H](CCN)C(=O)NCCOCCOCC(=O)NCCCCCCCCCCC(=O)O)NC(=O)[C@H](C(C)O)NC(=O)[C@H](C(C)(C)O)NC(=O)[C@H](CC2CCCCC2)NC(=O)[C@H](Cc2cnc[nH]2)NC(=O)[C@@H](CC(C)C)NC(=O)[C@H](C)N(C)C1=O` (stereo partly drawn) [Example 2522] ({CH2CO}-Y(Carboxymethyl)[Phe(4-COOH)]DWV[Bip][Ile(3ξ)][NMeA][dL]H[Cha][Val(3-OH)][Thr(3ξ)]C[Dab][AEEA][Aun]-OH; thioether N-14), 0.0257 µM.
